# Test results taken from patent US20030203963A1, “Antimicrobial agent” (priority 2001, published 2003).
# Assays:
# L. monocyt. F6861 = test: Bioscreen growth inhibition test; assay type: cell-based, Listeria monocytogenes; conditions: BS010510, 24 h at 30° C., APP20010213
# Protocol: (§1) For broth cultures and Bioscreen testing most bacteria were grown in Brain Heart Infusion (BHI, Oxoid, pH 7.4). Lactobacillus sake A10 was grown in de Man, Rogosa, Sharpe medium ([…], Oxoid). Yeasts were grown in Sabouraud Liquid medium (SLM, Oxoid). Most bacteria were cultured at 30° C. Lactic acid bacteria were grown on solid medium in enriched CO2 atmosphere. Clostridium species were grown in Reinforced Clostridial Medium (RCM) at 37° C. anaerobically. Brochothrix thermosphacta fungi and yeasts were grown at 25° C. Fungi were cultured on Malt Extract Agar (MEA, Oxoid).
# (§2) An automated Microbiology Reader Bioscreen C was used to measure growth curves of the strains in the presence and absence of APP. The Bioscreen C measures the development of turbidity (i.e. growth) kinetically by vertical photometry in 200 wells of a honeycomb microtitre plate, simultaneously. The system consists of a Bioscreen C analyser, which is an incubator and measurement unit, integrated with a PC, software (BioLink v 5.30), printer and a ‘Honeycomb 2’ cuvette multiwell plate. Growth curve data can be analysed within the BioLink software or exported to programs such as Excel.
# (§3) Broth culture media were dispensed in 270 μl volumes into the wells as directed. Serial dilutions of a filter-sterilised APP stock solution were then dispensed into the same wells, as appropriate. The wells were inoculated with 30 μl of an appropriately diluted overnight broth culture or spore suspension, to give a final inoculum level of […]. The tests were incubated in the Bioscreen C for either 24 h at 30° C., or 72 h at 25° C. (depending on the micro-organism under investigation) with readings taken every 20 minutes after the trays were shaken. After the incubation period was complete the data were exported to Excel for analysis.
# L. monocyt. Scott A = test: Bioscreen growth inhibition test; assay type: cell-based, Listeria monocytogenes; conditions: BS010510, 24 h at 30° C., APP20010213
# Protocol: as §1, §2, §3
# L. monocytogenes 272 = test: Bioscreen growth inhibition test; assay type: cell-based, Listeria monocytogenes; conditions: BS010411, 24 h at 30° C.
# Protocol: as §1, §2, §3
# L. monocytogenes 358 = test: Bioscreen growth inhibition test; assay type: cell-based, Listeria monocytogenes; conditions: BS010510, 24 h at 30° C., APP20010213
# Protocol: as §1, §2, §3
# L. monocytogenes S23 [1] = test: Bioscreen growth inhibition test; assay type: cell-based, Listeria monocytogenes; conditions: BS010411, 24 h at 30° C.
# Protocol: as §1, §2, §3
# Ent. aerogenes 10102 = test: Bioscreen growth inhibition test; assay type: cell-based, Enterobacter aerogenes; conditions: BS010510, 24 h/30, APP20010213
# Protocol: as §1, §2
# (§4) Broth culture media were dispensed in 270 μl volumes into the wells as directed. […] (depending on the micro-organism under investigation) with readings taken every 20 minutes after the trays were shaken. […]
# Salm. Typhimurium S29 = test: Bioscreen growth inhibition test; assay type: cell-based, Salmonella Typhimurium; conditions: BS010411, 24 h/30° C.
# Protocol: as §1, §2, §3
# Salmonella sp. S19 = test: Bioscreen growth inhibition test; assay type: cell-based; conditions: BS010510, 24 h/30, APP20010213
# Protocol: as §1, §2, §4
# L. monocytogenes S23 [2] = test: In vitro cidal experiment; assay type: cell-based, Listeria monocytogenes; conditions: ambient temperature
# Protocol: 100 μl of SDW (sterile deionised water) or APP sample E002012 was added to 890 μl 10 mM HEPES buffer (pH 7). […] After this time the bacteria were enumerated by viable count. The concentration of the APP sample was 24.7 μg/ml.
# Salm Typhimurium S29 [3] = test: Test in cooked sausage meat slurry; assay type: cell-based, Salmonella Typhimurium; conditions: for Total inhibition for: cooked sausage meat slurry at 8° C., pH 6.2, TSM010605
# From the text: 500 g of bologna sausage meat mixture was mixed with 500 g Brain Heart Infusion broth (BHIB) to make a homogeneous slurry. The bologna sausage meat mix comprised (g per kg): lean beef 320; lean pork 202; lard 250; water 40; glucose 5; starch 155; spice mix 3.75; sodium glutamate 0.5; sodium erythorbate 0.545; sodium di-phosphate 3; NaCl 20; sodium nitrite 0.15. 200 g samples of the meat slurry were autoclaved. While the meat was still warm it was re-mixed thoroughly. When the meat had cooled it was inoculated with 2 ml of 10^5 cfu/ml spore or cell suspension, and re-mixed again. Each inoculated meat sample was divided into 3×50 g samples, and 1 ml of either SDW, 2.5% or 5% APP solution (batch number APP 20010215) was added to prepare meat samples containing 0, 500 and 1000 ppm APP. The meat slurry was again shaken thoroughly to ensure even mixing, an initial viable count was taken and the samples incubated at 8° C. Samples were taken at twice-weekly intervals. The pH of the sausage meat slurry was 6.2.
# Salm Typhimurium S29 [4] = test: Test in cooked minced beef slurry; assay type: cell-based, Salmonella Typhimurium
# Protocol: 1 kg of minced beef, purchased from the local butcher, was mixed with 1 litre of BHI. 200 g portion of this meat slurry was autoclaved. When the meat had cooled, the pH was recorded (pH 6.24), and each pot was inoculated with 2.0 ml of 10^5 spores or cells and the meat re-mixed thoroughly. Each inoculated 200 g pot was distributed as 3×50 g portions. To each pot 1 ml of SDW, 5% or 10% APP (Batch No. APP20010215) was added, and the meat was again mixed thoroughly. An initial viable count was performed, the meat was incubated at 8° C. and sampled twice weekly. The pH of the cooked minced beef slurry was 6.24.
# Ps. fluorescens = test: Lab media at optimum temperature (summary); assay type: cell-based, Pseudomonas fluorescens
# Protocol: as §1, §2, §4
# [5] = tests disclosed by Baute et al., Phytochemistry 33 (1993); cited from earlier work
compound,measurement,setting,value
"O=C1CC(CO)OC=C1O (stereo not shown) [APP, Ascopyrone P]",APP level causing significant inhibition,L. monocyt. F6861,2000 ppm
same,APP level causing total inhibition,L. monocyt. F6861,3000 ppm
same,APP level causing significant inhibition,L. monocyt. Scott A,2000 ppm
same,APP level causing total inhibition,L. monocyt. Scott A,3000 ppm
same,APP level causing significant inhibition,L. monocytogenes 272; APP20010213,2000 ppm
same,APP level causing total inhibition,L. monocytogenes 272; APP20010213,4000 ppm
same,APP level causing significant inhibition,L. monocytogenes 272; APP20010215,2000 ppm
same,APP level causing total inhibition,L. monocytogenes 272; APP20010215,>4000 ppm
same,APP level causing total inhibition,L. monocytogenes 358,3000 ppm
same,APP level causing significant inhibition,L. monocytogenes S23 [1]; APP20010213,2000 ppm
same,APP level causing total inhibition,L. monocytogenes S23 [1]; APP20010213,4000 ppm
same,APP level causing significant inhibition,L. monocytogenes S23 [1]; APP20010215,1000 ppm
same,APP level causing total inhibition,L. monocytogenes S23 [1]; APP20010215,4000 ppm
same,APP level causing total inhibition,Ent. aerogenes 10102,4000 ppm
same,APP level causing significant inhibition,Salm. Typhimurium S29; APP 20010213,2000 ppm
same,APP level causing total inhibition,Salm. Typhimurium S29; APP 20010213,4000 ppm
same,APP level causing significant inhibition,Salm. Typhimurium S29; APP 20010215,2000 ppm
same,APP level causing total inhibition,Salm. Typhimurium S29; APP 20010215,>4000 ppm
same,APP level causing total inhibition,Salmonella sp. S19,4000 ppm
same,Viable count after 2 h incubation,"L. monocytogenes S23 [2]; 24.7 μg/ml APP E002012, 10 mM HEPES buffer (pH 7)",1.3 × 10^7
same,Listeria counts after 2 h incubation,"L. monocytogenes S23 [2]; 24.7 μg/ml APP, buffer",remained steady
same,Total inhibition for,Salm Typhimurium S29 [3]; 500 ppm,Total inhibition by 500 for 25 d
same,Total inhibition for,Salm Typhimurium S29 [3]; 1000 ppm,Total inhibition by 1000 ppm for >38 d
same,Total inhibition (effect on growth of target organism by APP),"Salm Typhimurium S29 [3]; Cooked sausage meat slurry at 8° C. pH 6.2, (1000)",S. Typhimurium
same,Total inhibition for,"Salm Typhimurium S29 [4]; 2000 ppm, minced beef slurry at 8° C., pH 6.24, TCM010619",Total inhibition by 2000 ppm for >44 d
same,Total inhibition (effect on growth of target organism by 2000 ppm APP),Salm Typhimurium S29 [4]; Cooked minced beef slurry at 8° C. pH 6.24,S. Typhimurium
same,Total inhibition (effect on growth of target organism by 2000 ppm APP),Ps. fluorescens,Ps. fluorescens
same,Function as an antibiotic,[5],did not function satisfactorily as an antibiotic
